Assay results reported in patent EP4667466A1, “PROTAC DEGRADERS OF MLLT1 AND/OR MLLT3” (priority 2024, dated 2025).

Key:
[1] = molecular target: T1, MLLT1 (Homo sapiens, UniProt Q03111); assay: MLLT1 degradation assay (JESS automated chemiluminescent detection) in MV4-11 cells; assay type: cell-based; conditions: 24h, with respect to DMSO control
T1 construct: endogenous in cells; host or cells: MV4-11 (ATCC CRL-9591)
T1 sequence (Q03111 1-559): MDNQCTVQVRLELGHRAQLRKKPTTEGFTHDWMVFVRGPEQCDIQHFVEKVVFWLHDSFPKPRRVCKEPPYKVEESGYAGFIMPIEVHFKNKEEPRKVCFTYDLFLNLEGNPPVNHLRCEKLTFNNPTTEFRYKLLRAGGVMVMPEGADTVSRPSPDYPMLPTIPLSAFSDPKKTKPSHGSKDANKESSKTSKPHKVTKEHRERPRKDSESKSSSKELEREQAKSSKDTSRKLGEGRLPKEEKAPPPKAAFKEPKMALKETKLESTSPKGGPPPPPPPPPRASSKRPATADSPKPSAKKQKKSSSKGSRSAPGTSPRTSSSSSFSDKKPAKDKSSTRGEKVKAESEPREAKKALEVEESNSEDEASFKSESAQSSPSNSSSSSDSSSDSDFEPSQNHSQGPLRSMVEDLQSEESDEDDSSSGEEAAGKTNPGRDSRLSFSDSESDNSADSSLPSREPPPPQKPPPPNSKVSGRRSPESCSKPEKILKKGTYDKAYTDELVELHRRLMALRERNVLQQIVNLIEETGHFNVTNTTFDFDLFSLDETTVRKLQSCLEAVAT
In short: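 MV4-11 cells were treated with 1000, 100 or 10 nM compound (0.1% DMSO) for 24 h at 37 °C. Lysates (4 µg protein) were probed for MLLT1 and GAPDH by JESS capillary chemiluminescence. Degradation was calculated from band peak areas versus DMSO control and binned into categories A–D.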

[2] = test system: MV4-11 cells; assay: MV4-11 cellular proliferation assay, Assay Format A (CellTiter-Glo, 120 hours); assay type: cell-based; conditions: Homo sapiens, Assay method A, read-out: MV4-11 antiproliferative IC50
Experimental: An MV4-11 proliferation assay was used to test the ability of compounds to reduce cell viability.
After 120 hours of treatment, cells were incubated for 10 min at RT with the CellTiter-Glo (CTG) reagent (G7571, Promega). Measurement of the luminescence signal was performed on a microplate reader (Ensight, PerkinElmer). CTG reagent measures the amount of ATP, which is directly proportional to the number of cells, to determine the number of viable cells in culture.
The data were analysed as follows: Data normalization, N(x) = (x−〈cr〉)/(〈sr〉−〈cr〉) × 100 [formula] where x is the measured raw signal value of a well, (cr) is the median of the measured signal values for the Central Reference (DMSO) wells on a plate, (sr) is the median of the measured signal values for the Scale Reference (reference compound) wells on a plate. Curve fitting, S0 + (Sinf −S0)/(1 + (((AC50)/(10^c)))^n) [formula] where the experimental set-up assumes the Hill parameters in certain ranges: S0 ~ Central Reference (CR) from normalization (= Bottom), Sinf ~ Scale Reference (SR) from normalization (= Top), nHill ~ 1, AC50 ~ within the measured concentration range.

inhibition at 0.01 µM [1] [%] | inhibition at 0.1 µM [1] [%] | inhibition at 1 µM [1] [%] | IC50 [2] [nM] | Structure (SMILES)
≥ 75 | ≥ 75 | ≥ 75 | 4 | Cc1nn(CCCCCCCC#Cc2cccc3c2CN(C2CCC(=O)NC2=O)C3=O)c2cc(C(=O)Nc3cc4[nH]c([C@H]5CCCN5C)cc4cn3)ccc12 (mixture of isomers) [Example 1, 1-(9-(2-(2,6-dioxopiperidin-3-yl)-1-oxoisoindolin-4-yl)non-8-yn-1-yl)-3-methyl-N-(2-((R)-1-methylpyrrolidin-2-yl)-1H-pyrrolo[3,2-c]pyridin-6-yl)-1H-indazole-6-carboxamide]
< 25 | ≥ 75 | ≥ 75 | 12 | Cc1nn(CCCCCCCCNc2ccc3c(c2)C(=O)N(C2CCC(=O)NC2=O)C3=O)c2cc(C(=O)Nc3cc4[nH]c([C@@H]5CCCN5C)cc4cn3)ccc12 (stereo partly drawn) [Example 15, 1-(8-{[2-(2,6-dioxopiperidin-3-yl)-1,3-dioxoisoindol-5-yl]amino}octyl)-3-methyl-N-{2-[(2S)-1-methylpyrrolidin-2-yl]-1H-pyrrolo[3,2-c]pyridin-6-yl}indazole-6-carboxamide]
≥ 75 | ≥ 75 | ≥ 75 | 9 | Cc1nn(CCCCCCCCNc2cccc3c2CN(C2CCC(=O)NC2=O)C3=O)c2cc(C(=O)Nc3cc4[nH]c([C@H]5CCCN5C)cc4cn3)ccc12 (stereo partly drawn) [Example 16, 1-(8-{[2-(2,6-dioxopiperidin-3-yl)-1-oxo-3H-isoindol-4-yl]amino}octyl)-3-methyl-N-{2-[(2R)-1-methylpyrrolidin-2-yl]-1H-pyrrolo[3,2-c]pyridin-6-yl}indazole-6-carboxamide]
≥ 75 | ≥ 75 | ≥ 75 | 11 | Cc1nn(CCCCNc2cccc3c2C(=O)N(C2CCC(=O)NC2=O)C3=O)c2cc(C(=O)Nc3cc4[nH]c([C@H]5CCCN5C)cc4cn3)ccc12 (stereo partly drawn) [Example 21, 1-(4-((2-(2,6-dioxopiperidin-3-yl)-1,3-dioxoisoindolin-4-yl)amino)butyl)-3-methyl-N-(2-((R)-1-methylpyrrolidin-2-yl)-1H-pyrrolo[3,2-c]pyridin-6-yl)-1H-indazole-6-carboxamide]
≥ 75 | ≥ 75 | ≥ 75 | 8 | Cc1nn(CCCCCCNc2cccc3c2C(=O)N(C2CCC(=O)NC2=O)C3=O)c2cc(C(=O)Nc3cc4[nH]c([C@H]5CCCN5C)cc4cn3)ccc12 (stereo partly drawn) [Example 22, 1-(6-{[2-(2,6-dioxopiperidin-3-yl)-1,3-dioxoisoindol-4-yl]amino}hexyl)-3-methyl-N-{2-[(2R)-1-methylpyrrolidin-2-yl]-1H-pyrrolo[3,2-c]pyridin-6-yl}indazole-6-carboxamide]
 | ≥ 75 | ≥ 75 | 11 | Cc1nn(CCOCCOCCNc2cccc3c2C(=O)N(C2CCC(=O)NC2=O)C3=O)c2cc(C(=O)Nc3cc4[nH]c([C@H]5CCCN5C)cc4cn3)ccc12 (stereo partly drawn) [Example 25, 1-(2-(2-(2-((2-(2,6-dioxopiperidin-3-yl)-1,3-dioxoisoindolin-4-yl)amino)ethoxy)ethoxy)ethyl)-3-methyl-N-(2-((R)-1-methylpyrrolidin-2-yl)-1H-pyrrolo[3,2-c]pyridin-6-yl)-1H-indazole-6-carboxamide]
 | ≥ 75 | ≥ 75 | 14 | Cc1nn(CCOCCNc2cccc3c2C(=O)N(C2CCC(=O)NC2=O)C3=O)c2cc(C(=O)Nc3cc4[nH]c([C@H]5CCCN5C)cc4cn3)ccc12 (stereo partly drawn) [Example 26, 1-(2-(2-((2-(2,6-dioxopiperidin-3-yl)-1,3-dioxoisoindolin-4yl)amino)ethoxy)ethyl)-3-methyl-N-(2-((R)-1-methylpyrrolidin-2-yl)-1H-pyrrolo[3,2-c]pyridin-6-yl)-1H-indazole-6-carboxamide]
≥ 75 | ≥ 75 | 50 to 75 |  | Cc1nn(C2CCN(CC#Cc3cccc4c3CN(C3CCC(=O)NC3=O)C4=O)CC2)c2cc(C(=O)Nc3cc4[nH]c([C@H]5CCCN5C)cc4cn3)ccc12 (stereo partly drawn) [Example 68, 1-(1-(3-(2-(2,6-dioxopiperidin-3-yl)-1-oxoisoindolin-4-yl)prop-2-yn-1-yl)piperidin-4-yl)-3-methyl-N-(2-((R)-1-methylpyrrolidin-2-yl)-1H-pyrrolo[3,2-c]pyridin-6-yl)-1H-indazole-6-carboxamide]
≥ 75 | ≥ 75 | ≥ 75 |  | Cc1nn(C2CCN(CC3CCN(c4cc5c(cc4F)C(=O)N(C4CCC(=O)NC4=O)C5=O)CC3)CC2)c2cc(C(=O)Nc3cc4[nH]c([C@H]5CCCN5C)cc4cn3)ccc12 (stereo partly drawn) [Example 69, 1-(1-((1-(2-(2,6-dioxopiperidin-3-yl)-6-fluoro-1,3-dioxoisoindolin-5-yl)piperidin-4-yl)methyl)piperidin-4-yl)-3-methyl-N-(2-((R)-1-methylpyrrolidin-2-yl)-1H-pyrrolo[3,2-c]pyridin-6-yl)-1H-indazole-6-carboxamide]
≥ 75 | ≥ 75 | ≥ 75 |  | Cc1nn(C2CCN(CC3CCN(c4ccc5c(c4)C(=O)N(C4CCC(=O)NC4=O)C5=O)CC3)CC2)c2cc(C(=O)Nc3cc4[nH]c([C@H]5CCCN5C)cc4cn3)ccc12 (stereo partly drawn) [Example 70, 1-(1-((1-(2-(2,6-dioxopiperidin-3-yl)-1,3-dioxoisoindolin-5-yl)piperidin-4-yl)methyl)piperidin-4-yl)-3-methyl-N-(2-((R)-1-methylpyrrolidin-2-yl)-1H-pyrrolo[3,2-c]pyridin-6-yl)-1H-indazole-6-carboxamide]
50 to 75 | ≥ 75 | ≥ 75 |  | Cc1nn(C2CCN(CC3CCN(c4cccc5c4C(=O)N(C4CCC(=O)NC4=O)C5=O)CC3)CC2)c2cc(C(=O)Nc3cc4[nH]c([C@H]5CCCN5C)cc4cn3)ccc12 (stereo partly drawn) [Example 71, 1-(1-((1-(2-(2,6-dioxopiperidin-3-yl)-1,3-dioxoisoindolin-4-yl)piperidin-4-yl)methyl)piperidin-4-yl)-3-methyl-N-(2-((R)-1-methylpyrrolidin-2-yl)-1H-pyrrolo[3,2-c]pyridin-6-yl)-1H-indazole-6-carboxamide]
≥ 75 | ≥ 75 | 50 to 75 |  | Cc1nn(CC#Cc2cccc3c2CN(C2CCC(=O)NC2=O)C3=O)c2cc(C(=O)Nc3cc4[nH]c([C@H]5CCCN5C)cc4cn3)ccc12 (stereo partly drawn) [Example 72, 1-(3-(2-(2,6-dioxopiperidin-3-yl)-1-oxoisoindolin-4-yl)prop-2-yn-1-yl)-3-methyl-N (2-((R)-1-methylpyrrolidin-2-yl)-1H pyrrolo[3,2-c]pyridin-6-yl)-1H-indazole-6-carboxamide]
50 to 75 | ≥ 75 | ≥ 75 |  | Cc1nn(CCCCCCC2CCN(c3cccc(C(=O)N[C@H]4CCC(=O)NC4=O)n3)CC2)c2cc(C(=O)Nc3cc4[nH]c([C@H]5CCCN5C)cc4cn3)ccc12 [Example 73, 1-(6-(1-(6-(((S)-2,6-dioxopiperidin-3-yl)carbamoyl)pyridin-2-yl)piperidin-4-yl)hexyl)-3-methyl-N-(2-((R)-1-methylpyrrolidin-2-yl)-1H-pyrrolo[3,2-c]pyridin-6-yl)-1H-indazole-6-carboxamide]
50 to 75 | 50 to 75 | ≥ 75 |  | Cc1nn(C2CCC(CCCC#Cc3cccc4c3CN(C3CCC(=O)NC3=O)C4=O)CC2)c2cc(C(=O)Nc3cc4[nH]c([C@H]5CCCN5C)cc4cn3)ccc12 (stereo partly drawn) [Example 74, 1-(4-(5-(2-(2,6-dioxopiperidin-3-yl)-1-oxoisoindolin-4-yl)pent-4-yn-1-yl)cyclohexyl)-3-methyl-N-(2-((R)-1-methylpyrrolidin-2-yl)-1H-pyrrolo[3,2-c]pyridin-6-yl)-1H-indazole-6-carboxamide]
